The values that follow come from patent EP4028131B1, “HETEROAROMATIC COMPOUNDS USEFUL IN THERAPY” (CUROVIR AB, priority 2019, dated 2021).

pIC50: −log10 of the molar value.

Data set [1] in a line: cell viability assay using tetrazolium salt (MTS). Particulars: human. The method, then: The cell viability assay using tetrazolium salt (MTS) was also performed in HEp-2 cells.
Another data set deals with RSV strain A2. The experiment in a line: standard plaque reduction assay for anti-RSV activity. The note with it: for SI (CC50/IC50): calculated selectivity index, HEp-2 cells; for pIC50: human respiratory syncytial virus, HEp-2, read-out: IC50 (RSV).
Data set [2] relates to RSV. The experiment in a line: plaque titration assay of extracellular and cell-associated virus yield. Type of data set: cell-based. Particulars: HEp-2 cells, MOI of 3, compound at 0.2 µM. As for the experimental part:
The titer of extracellular (EX) and cell-associated (CA) RSV after incubation in Hep-2 cells at a multiplicity of infection (MOI) of 3 was determined by a plaque titration assay. Infected cells were harvested by scraping into fresh supernatant medium and then subjected to a rapid freeze-thaw cycle at -80 °C ethanol and a 37 °C water bath, respectively, to release infectious virus.

Data set [3] relates to RSV. The data set is described as follows: time-of-addition study of antiviral effect. Type of data set: cell-based. Particulars: HEp-2 cells, compound at 0.2 µM added from -1h to 6h relative to infection. The method, then:
A time-of-addition study was performed using the compounds of Examples 25 and 61.

Regarding `COc1ccc(-c2c(C)nc3c(NCc4ccncc4)cc(C)nn23)cc1OC` [Example 1, 3-(3,4-dimethoxyphenyl)-2,6-dimethyl-N-(pyridin-4-ylmethyl)imidazo[1,2-b]pyridazin-8-amine], in data set [1], the CC50 amounted to 60 µM. Besides, in the data set with RSV strain A2, the “SI (CC50/IC50)” value is 2000 and the pIC50 was 7.52.

In the case of `Cc1cc(CNc2cc(C)nc3c(-c4ccc5c(c4)c(C)nn5C)c(C)nn23)ccn1` [Example 5, 3-(1,3-dimethyl-1H-indazol-5-yl)-2,5-dimethyl-N-[(2-methylpyridin-4-yl)methyl]pyrazolo[1,5-a]pyrimidin-7-amine], the 50% cytotoxic concentration (CC50) in data set [1] stood at 18 µM. In the data set on RSV strain A2, the “SI (CC50/IC50)” value is reported as 450 and the pIC50 is 7.40.

As to `CCc1cc(CNc2cc(C)nc3c(-c4ccc5c(c4)c(C)nn5C)c(C)nn23)ccn1` [Example 6, 3-(1,3-dimethyl-1H-indazol-5-yl)-2,5-dimethyl-N-[(2-ethylpyridin-4-yl)methyl]pyrazolo[1,5-a]pyrimidin-7-amine], the CC50 in data set [1] was found to be 160 µM. For the same compound, in the data set on RSV strain A2, the “SI (CC50/IC50)” value is 3200 and the pIC50 was 7.30.

Take `COc1ccc(-c2c(C)nn3c(NCc4cccc(S(C)(=O)=O)c4)cc(C)nc23)cc1OC` [Example 25, 3-(3,4-dimethoxyphenyl)-2,5-dimethyl-N-[(3-methylsulfonylphenyl)methyl]pyrazolo[1,5-a]pyrimidin-7-amine]: the CC50 in data set [1] was over 500 µM. For the same compound, in the data set with RSV [2], the “inhibition of cell-associated (CA) RSV yield” value is “approximately 1 log10” and the “inhibition of extracellular (EX) RSV yield” value is “approximately 1 log10”. In the data set on RSV [3], the “time dependency of inhibition of RSV yield” value is on record as “time-independent inhibition of RSV yield”. Also, in the data set on RSV strain A2, the “SI (CC50/IC50)” value was over 25000 and the negative-log IC50 (pIC50) was 7.70.

For the compound `COc1ccc(-c2c(C)nn3c(NCc4ccc(C)nc4)cc(C)nc23)cc1OC` [Example 29, 3-(3,4-dimethoxyphenyl)-2,5-dimethyl-N-[(6-methyl-3-pyridyl)methyl]pyrazolo[1,5-a]pyrimidin-7-amine], the CC50 in data set [1] (HEp-2 cells) was found to be 60 µM. In addition, in the data set on RSV strain A2, the “SI (CC50/IC50)” value was 150 and the negative logarithm of the IC50 (pIC50) is 7.40.

For the compound `COc1ccc(-c2c(C)nn3c(NCc4ccncc4)nc(C)nc23)cc1OC` [Example 38, 8-(3,4-dimethoxyphenyl)-2,7-dimethyl-N-(4-pyridylmethyl)pyrazolo[1,5-a][1,3,5]triazin-4-amine], in data set [1], the CC50 is 60 µM. Also, in the data set on RSV strain A2, the “SI (CC50/IC50)” value is 667 and the negative logarithm of the IC50 (pIC50) was 7.05.

Regarding `COc1ccc(-c2c(C)nn3c(NCc4ccc(S(N)(=O)=O)cc4)nc(C)nc23)cc1OC` [Example 45, 4-[[[8-(3,4-dimethoxyphenyl)-2,7-dimethylpyrazolo[1,5-a][1,3,5]triazin-4-yl]amino]methyl]benzenesulfonamide], the cytotoxic concentration (CC50) in data set [1] is over 500 µM. Moreover, in the data set with RSV strain A2, the “SI (CC50/IC50)” value is listed as over 7143 and the negative logarithm of the IC50 (pIC50) is 7.15.

For the compound `Cc1cc(NCc2ccncc2)c2nc(C)c(-c3ccc4c(c3)c(C)nn4C)n2n1` [Example 61, 3-(1,3-dimethyl-1H-indazol-5-yl)-2,6-dimethyl-N-(pyridin-4-ylmethyl)imidazo[1,2-b]pyridazin-8-amine], the 50% cytotoxic concentration (CC50) in data set [1] turned out to be 18 µM. In the data set on RSV [2], the “inhibition of cell-associated (CA) RSV yield” value was “approximately 1 log10” and the “inhibition of extracellular (EX) RSV yield” value is reported as “approximately 1 log10”. For the same compound, the “time dependency of inhibition of RSV yield” value in the data set on RSV [3] is listed as “time-independent inhibition of RSV yield”. In the data set on RSV strain A2, the “SI (CC50/IC50)” value is 514 and the pIC50 was 7.47.

Consider `Cc1cc(NCc2ccncc2)n2nc(C)c(-c3ccc4c(c3)c(C)nn4C)c2n1` [Example 68, 3-(1,3-dimethyl-1H-indazol-5-yl)-2,5-dimethyl-N-(pyridin-4-ylmethyl)pyrazolo[1,5-a]pyrimidin-7-amine], for which the CC50 in data set [1] was found to be 40 µM. Also, in the data set with RSV strain A2, the “SI (CC50/IC50)” value was 1000 and the pIC50 was 7.40.

As to `CC(=O)Nc1nc(C)c(-c2ccc(Cl)c(S(=O)(=O)NCCO)c2)s1` [PIK-93, reference compound], in the data set on RSV strain A2, the pIC50 is 6.40.

Consider `Cc1cc(CCCOc2c(C)cc(-c3noc(C(F)(F)F)n3)cc2C)on1` [Pleconaril, reference compound], for which the CC50 in data set [1] is 300 µM. Besides, in the data set with RSV strain A2, the “SI (CC50/IC50)” value is 38 and the pIC50 was 5.10.
